Tests used:
[1] = target: T1, PAR4 (Homo sapiens (Human), UniProt Q96RI0); assay: FLIPR assay in PAR4-expressing HEK293 cells (calcium mobilization); type: cell-based; settings: PAR4 antagonist activity, FLIPR assay as described in Example A
[2] = target: T1, PAR4; assay: Gamma thrombin induced platelet aggregation assay (PRP assay); type: cell-based; settings: γ-thrombin induced platelet aggregation in PRP

T1 sequence (Q96RI0 18-385): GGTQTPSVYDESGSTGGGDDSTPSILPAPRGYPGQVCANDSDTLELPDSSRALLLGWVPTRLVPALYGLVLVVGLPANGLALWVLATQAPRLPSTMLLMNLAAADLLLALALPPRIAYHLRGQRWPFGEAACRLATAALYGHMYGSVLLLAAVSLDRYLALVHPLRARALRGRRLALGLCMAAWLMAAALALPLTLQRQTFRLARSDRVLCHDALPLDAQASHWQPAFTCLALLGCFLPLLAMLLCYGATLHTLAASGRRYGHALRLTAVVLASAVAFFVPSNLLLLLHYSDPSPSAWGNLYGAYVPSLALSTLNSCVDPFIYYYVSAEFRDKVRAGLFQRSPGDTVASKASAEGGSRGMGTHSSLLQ

Row | IC50 [1] [nM] | IC50 [2] [nM] | SMILES
1 | 3.5 | 68.2 | COc1cc(OCc2cccc(-c3ccc4c(c3)OCO4)c2)c2cc(-c3cn4nc(OC)sc4n3)oc2c1 [Example 18]
2 | – | 629 | COc1cc(OCc2cccc(-c3ccc4nccn4c3)c2)c2cc(-c3cn4nc(OC)sc4n3)oc2c1 [Example 23]
3 | – | 970 | COc1cc(OCc2cccc(-c3cccnc3C#N)c2)c2cc(-c3cn4nc(OC)sc4n3)oc2c1 [Example 26]
4 | – | 24.6 | COc1cc(OCc2cccc(-c3ccc([N+](=O)[O-])nc3)c2)c2cc(-c3cn4nc(OC)sc4n3)oc2c1 [Example 28]
5 | – | 125 | COc1cc(OCc2cccc(-c3ccc(C#N)c(F)c3)c2)c2cc(-c3cn4nc(OC)sc4n3)oc2c1 [Example 30]
6 | – | 49.9 | COc1cc(OCc2cccc(-c3ccc4c(c3)OCCO4)c2)c2cc(-c3cn4nc(OC)sc4n3)oc2c1 [Example 31]
7 | 0.57 | 2770 | COc1cc(OCc2cccc(-c3ccc(F)c(C)n3)c2)c2cc(-c3cn4nc(OC)sc4n3)oc2c1 [Example 32]
8 | 1.03 | 65.9 | COc1cc(OCc2cccc(-c3cnsc3)c2)c2cc(-c3cn4nc(OC)sc4n3)oc2c1 [Example 48]
9 | 4.81 | 2670 | COc1cc(OCc2cccc(-c3ccc(N4CCOCC4)nc3)c2)c2cc(-c3cn4nc(OC)sc4n3)oc2c1 [Example 59]
10 | 4.18 | 81.3 | COc1cc(OCc2cccc(-c3ccc(C(=O)OC(C)(C)C)nc3)c2)c2cc(-c3cn4nc(OC)sc4n3)oc2c1 [Example 60]
11 | 4.04 | 2430 | COc1cc(OCc2cccc(-c3cncnc3)c2)c2cc(-c3cn4nc(C(C)(F)F)sc4n3)oc2c1 [Example 63, 2-(1,1-Difluoroethyl)-6-(6-methoxy-4-((3-(pyrimidin-5-yl)benzyl)oxy)benzofuran-2-yl)imidazo[2,1-b][1,3,4]thiadiazole]
12 | – | 490 | COc1cc(OCc2cccc(-c3cncnc3)c2)c2cc(-c3cn4nc([C@H](C)F)sc4n3)oc2c1 [Example 64, (S)-2-(1-Fluoroethyl)-6-(6-methoxy-4-((3-(pyrimidin-5-yl)benzyl)oxy)benzofuran-2-yl)imidazo[2,1-b][1,3,4]thiadiazole]
13 | 3.37 | 2230 | COc1cc(OCc2cccc(-c3ccc(F)nc3)c2)c2cc(-c3cn4nc(C(C)(F)F)sc4n3)oc2c1 [Example 68]
14 | – | 13.1 | COc1cc(OCc2cccc(-c3ccc(F)cn3)c2)c2cc(-c3cn4nc([C@H](C)F)sc4n3)oc2c1 [Example 69]
15 | 0.5 | 3.61 | COc1cc(COc2cc(OC)cc3oc(-c4cn5nc(OC)sc5n4)cc23)cc(-c2cnc(OC)nc2)c1 [Example 71]
16 | 3130 | – | CSc1nn2cc(-c3nc4c(OCc5ccccc5-c5ccccc5)cccc4o3)nc2s1 [Example 80]
17 | 22.1 | 5000 | COc1nn2cc(-c3nc4c(OCc5cccc(-c6ccoc6)c5)cccc4o3)nc2s1 [Example 81, 4-((3-(Furan-3-yl)benzyl)oxy)-2-(2-methoxyimidazo[2,1-b][1,3,4]thiadiazol-6-yl)benzo[d]oxazole]
18 | 1.32 | – | COc1cc(OCc2cccc(-c3cnc(OC)nc3)c2)c2cc(-c3cn4nc(C)ccc4n3)oc2c1 [Example 82, 2-(6-Methoxy-4-((3-(2-methoxypyrimidin-5-yl)benzyl)oxy)benzofuran-2-yl)-6-methylimidazo[1,2-b]pyridazine]
19 | 0.39 | – | COc1cc(OCc2cc(F)cc(-c3cnc(OC)nc3)c2)c2cc(-c3cn4nc(OC)sc4n3)oc2c1 [Example 83, 6-(4-((3-Fluoro-5-(2-methoxypyrimidin-5-yl)benzyl)oxy)-6-methoxybenzofuran-2-yl)-2-methoxyimidazo[2,1-b][1,3,4]thiadiazole]
20 | 65 | – | COc1cc(OCc2cccc(-c3ccc(C(=O)O)nc3)c2)c2cc(-c3cn4nc(OC)sc4n3)oc2c1 [Example 84, 5-(3-(((6-Methoxy-2-(2-methoxyimidazo[2,1-b][1,3,4]thiadiazol-6-yl)benzofuran-4-yl)oxy)methyl)phenyl)picolinic acid]
21 | 1.49 | – | COCCN(C)C(=O)c1ccc(-c2cccc(COc3cc(OC)cc4oc(-c5cn6nc(OC)sc6n5)cc34)c2)cn1 [Example 85, 5-(3-(((6-Methoxy-2-(2-methoxyimidazo[2,1-b][1,3,4]thiadiazol-6-yl)benzofuran-4-yl)oxy)methyl)phenyl)-N-(2-methoxyethyl)-N-methylpicolinamide]
22 | 0.56 | – | COc1cc(OCc2cccc(-c3ccc(C(C)OC4CCCCO4)cn3)c2)c2cc(-c3cn4nc(OC)sc4n3)oc2c1 (stereo not shown) [Example 86, 2-Methoxy-6-(6-methoxy-4-((3-(5-(1-((tetrahydro-2H-pyran-2-yl)oxy)ethyl)pyridin-2-yl)benzyl)oxy)benzofuran-2-yl)imidazo[2,1-b][1,3,4]thiadiazole]
23 | 1.11 | – | COc1cc(OCc2cccc(-c3ccc(C(C)O)cn3)c2)c2cc(-c3cn4nc(OC)sc4n3)oc2c1 (stereo not shown) [Example 87, 1-(6-(3-(((6-Methoxy-2-(2-methoxyimidazo[2,1-b][1,3,4]thiadiazol-6-yl)benzofuran-4-yl)oxy)methyl)phenyl)pyridin-3-yl)ethanol]

Row | IC50 [1] [nM] | IC50 [2] [nM] | SMILES
24 | 1.1 | – | COc1cc(OCc2cccc(-c3ccc(OC4CCCCO4)cc3)c2)c2cc(-c3cn4nc(OC)sc4n3)oc2c1 (stereo not shown) [Example 88]
25 | 0.79 | – | COc1cc(OCc2cccc(-c3ccc(OC4CCCCO4)cn3)c2)c2cc(-c3cn4nc(OC)sc4n3)oc2c1 (stereo not shown) [Example 89]
26 | 4.91 | – | COc1cc(OCc2cccc(-c3ccc(O)cc3)c2)c2cc(-c3cn4nc(OC)sc4n3)oc2c1 [Example 90]
27 | 9.05 | – | COc1cc(OCc2cccc(-c3ccc(O)cn3)c2)c2cc(-c3cn4nc(OC)sc4n3)oc2c1 [Example 91]
28 | 0.72 | – | COc1cc(OCc2cccc(C3CCOCC3)c2)c2cc(-c3cn4nc(OC)sc4n3)oc2c1 [Example 92, 2-Methoxy-6-(6-methoxy-4-((3-(tetrahydro-2H-pyran-4-yl)benzyl)oxy)benzofuran-2-yl)imidazo[2,1-b][1,3,4]thiadiazole]
29 | 0.71 | 105 | COc1cc(OCc2cccc(C3=CCOCC3)c2)c2cc(-c3cn4nc(OC)sc4n3)oc2c1 [Example 93]
30 | 2.21 | – | COc1cc(OCc2cccc(C3=CCCCC3)c2)c2cc(-c3cn4nc(OC)sc4n3)oc2c1 [Example 94]
31 | 0.69 | – | COc1cc(OCc2cccc(C3CCCCC3)c2)c2cc(-c3cn4nc(OC)sc4n3)oc2c1 [Example 95]
32 | 0.23 | – | COc1cc(OCc2cccc(-c3ccc(C(=O)N(C)C)cc3)n2)c2cc(-c3cn4nc(OC)sc4n3)oc2c1 [Example 96, 4-(6-(((6-Methoxy-2-(2-methoxyimidazo[2,1-b][1,3,4]thiadiazol-6-yl)benzofuran-4-yl)oxy)methyl)pyridin-2-yl)-N,N-dimethylbenzamide]
33 | 48.7 | – | COc1cc(OCc2ccnc(-c3cccc(C#N)c3)n2)c2cc(-c3cn4nc(OC)sc4n3)oc2c1 [Example 99]
34 | 0.72 | – | COc1cc(OCc2ccnc(-c3csc(C)n3)n2)c2cc(-c3cn4nc(OC)sc4n3)oc2c1 [Example 102]
35 | 1.39 | – | COc1cc(OCc2ccnc(C3CC3)n2)c2cc(-c3cn4nc(OC)sc4n3)oc2c1 [Example 103]
36 | 0.85 | – | COc1cc(OCc2ccnc(C3COc4ccccc4O3)n2)c2cc(-c3cn4nc(OC)sc4n3)oc2c1 (stereo not shown) [Example 104]
37 | 1.06 | – | COc1cc(OCc2ccnc(C3(c4ccccc4)CC3)n2)c2cc(-c3cn4nc(OC)sc4n3)oc2c1 [Example 105]
38 | 1.59 | – | COc1cc(OCc2cccc(-c3nc(CO)c(C)s3)c2)c2cc(-c3cn4nc(OC)sc4n3)oc2c1 [Example 106, (2-(3-(((6-Methoxy-2-(2-methoxyimidazo[2,1-b][1,3,4]thiadiazol-6-yl)benzofuran-4-yl)oxy)methyl)phenyl)-5-methylthiazol-4-yl)methanol]
39 | 1.09 | – | COc1ncc(-c2cccc(COc3cc(Cl)cc4oc(-c5cn6nc(OC)sc6n5)cc34)c2)cn1 [Example 107, 6-(6-Chloro-4-((3-(2-methoxypyrimidin-5-yl)benzyl)oxy)benzofuran-2-yl)-2-methoxyimidazo[2,1-b][1,3,4]thiadiazole]
40 | 1.43 | – | COc1cnc(-c2cccc(COc3cc(Cl)cc4oc(-c5cn6nc(OC)sc6n5)cc34)c2)cn1 [Example 108, 6-(6-Chloro-4-((3-(5-methoxypyrazin-2-yl)benzyl)oxy)benzofuran-2-yl)-2-methoxyimidazo[2,1-b][1,3,4]thiadiazole]
41 | 0.45 | – | COc1cc(OCc2cccc(C3(O)CCOCC3)n2)c2cc(-c3cn4nc(OC)sc4n3)oc2c1 [Example 109, 4-(6-(((6-Methoxy-2-(2-methoxyimidazo[2,1-b][1,3,4]thiadiazol-6-yl)benzofuran-4-yl)oxy)methyl)pyridin-2-yl)tetrahydro-2H-pyran-4-ol]
42 | 0.23 | – | COc1cc(OCc2cccc(C3(OC)CCOCC3)n2)c2cc(-c3cn4nc(OC)sc4n3)oc2c1 [Example 111, 2-Methoxy-6-(6-methoxy-4-((6-(4-methoxytetrahydro-2H-pyran-4-yl)pyridin-2-yl)methoxy)benzofuran-2-yl)imidazo[2,1-b][1,3,4]thiadiazole]
43 | 0.36 | – | COc1cc(OCc2cccc(C3(OC)CCOCC3)n2)c2cc(-c3cn4nc([C@H](C)F)sc4n3)oc2c1 [Example 112, (S)-2-(1-Fluoroethyl)-6-(6-methoxy-4-((6-(4-methoxytetrahydro-2H-pyran-4-yl)pyridin-2-yl)methoxy)benzofuran-2-yl)imidazo[2,1-b][1,3,4]thiadiazole]
44 | 0.35 | – | COc1cc(OCc2cccc(C3(F)CCOCC3)n2)c2cc(-c3cn4nc(OC)sc4n3)oc2c1 [Example 113, 6-(4-((6-(4-Fluorotetrahydro-2H-pyran-4-yl)pyridin-2-yl)methoxy)-6-methoxybenzofuran-2-yl)-2-methoxyimidazo[2,1-b][1,3,4]thiadiazole]
45 | 0.31 | – | COc1cc(OCc2cccc(C3(F)CCOCC3)n2)c2cc(-c3cn4nc([C@H](C)F)sc4n3)oc2c1 [Example 114, (S)-2-(1-Fluoroethyl)-6-(4-((6-(4-fluorotetrahydro-2H-pyran-4-yl)pyridin-2-yl)methoxy)-6-methoxybenzo-furan-2-yl)imidazo[2,1-b][1,3,4]thiadiazole]
